# Source: patent US8975232B2, “Macrocyclic kinase inhibitors and uses thereof” (President and Fellows of Harvard College, priority 2010, dated 2015)
# Legend:
# [1] = biological target: PRKACA (PKA) (Homo sapiens, UniProt P17612); experiment: SelectScreen kinase profiling; type: biochemical; conditions: 5 μM
# Description: (§1) Src IC50 determinations and single-point inhibition measurements were performed using Invitrogen's Z′-LYTE Tyr 02 assay kit according to the manufacturer's protocols. All kinase assays were performed at ATP concentrations near KM,ATP values, except where noted otherwise. Active human Src kinase was obtained from Millipore. For kinome profiling and IC50 determinations against non-Src kinases, compounds were submitted to Invitrogen's SelectScreen Kinase Profiling Service.
# [2] = biological target: ERBB4 (HER4) (Homo sapiens, UniProt Q15303); experiment: SelectScreen kinase profiling; type: biochemical; conditions: 5 μM
# Description: as §1
# [3] = biological target: LYN B (Homo sapiens, UniProt P07948); experiment: SelectScreen kinase profiling; type: biochemical; conditions: 5 μM
# Description: as §1
# [4] = biological target: SYK (Homo sapiens, UniProt P43405); experiment: SelectScreen kinase profiling; type: biochemical; conditions: 5 μM
# Description: as §1
# [5] = biological target: GSK3B (GSK3 beta) (Homo sapiens, UniProt P49841); experiment: SelectScreen kinase profiling; type: biochemical; conditions: 5 μM
# Description: as §1
# [6] = biological target: BTK (Homo sapiens, UniProt Q06187); experiment: SelectScreen kinase profiling; type: biochemical; conditions: 5 μM
# Description: as §1
# [7] = biological target: AKT1 (PKB alpha) (Homo sapiens, UniProt P31749); experiment: SelectScreen kinase profiling; type: biochemical; conditions: 5 μM
# Description: as §1
# [8] = biological target: MAP2K6 (MKK6) (Homo sapiens, UniProt P52564); experiment: SelectScreen kinase profiling; type: biochemical; conditions: 5 μM
# Description: as §1
# [9] = biological target: MAPK14 (p38 alpha) Direct (Homo sapiens, UniProt Q16539); experiment: SelectScreen kinase profiling; type: biochemical; conditions: 5 μM
# Description: as §1
# [10] = biological target: MAPK1 (ERK2) (Homo sapiens, UniProt P28482); experiment: SelectScreen kinase profiling; type: biochemical; conditions: 5 μM
# Description: as §1
# [11] = biological target: FYN (Homo sapiens, UniProt P06241); experiment: SelectScreen kinase profiling; type: biochemical; conditions: FYN; 5 μM
# Description: as §1
# [12] = biological target: YES1 (Homo sapiens, UniProt P07947); experiment: SelectScreen kinase profiling; type: biochemical; conditions: 5 μM
# Description: as §1
# [13] = biological target: CHEK1 (CHK1) (Homo sapiens, UniProt O14757); experiment: SelectScreen kinase profiling; type: biochemical; conditions: 5 μM
# Description: as §1
# [14] = biological target: LYN A (Homo sapiens, UniProt P07948); experiment: SelectScreen kinase profiling; type: biochemical; conditions: 5 μM
# Description: as §1
# [15] = biological target: MAP4K4 (HGK) (Homo sapiens, UniProt O95819); experiment: SelectScreen kinase profiling; type: biochemical; conditions: 5 μM
# Description: as §1
# [16] = biological target: AMPK A1/B1/G1 (Homo sapiens, UniProt Q13131); experiment: SelectScreen kinase profiling; type: biochemical; conditions: 5 μM
# Description: as §1
# [17] = biological target: FGR (Homo sapiens, UniProt P09769); experiment: SelectScreen kinase profiling; type: biochemical; conditions: FGR; 5 μM
# Description: as §1
# [18] = biological target: MET (cMet) (Homo sapiens, UniProt P08581); experiment: SelectScreen kinase profiling; type: biochemical; conditions: 5 μM
# Description: as §1
# [19] = biological target: ROCK1 (Homo sapiens, UniProt Q13464); experiment: SelectScreen kinase profiling; type: biochemical; conditions: 5 μM
# Description: as §1
# [20] = biological target: T1, Src kinase domain (chicken c-Src residues 251-533) (Gallus gallus, UniProt P00523); experiment: Continuous spectrophotometric kinase activity assay; type: biochemical; conditions: Src kinase domain
# T1 construct: chicken c-Src (residues 251-533 and residues 83-533); made in house
# [21] = biological target: T2, Abl (Homo sapiens, UniProt P00519); experiment: as above; type: biochemical
# T2 construct: human c-Abl (residues 229-512); made in house
# T2 sequence (P00519 229-512): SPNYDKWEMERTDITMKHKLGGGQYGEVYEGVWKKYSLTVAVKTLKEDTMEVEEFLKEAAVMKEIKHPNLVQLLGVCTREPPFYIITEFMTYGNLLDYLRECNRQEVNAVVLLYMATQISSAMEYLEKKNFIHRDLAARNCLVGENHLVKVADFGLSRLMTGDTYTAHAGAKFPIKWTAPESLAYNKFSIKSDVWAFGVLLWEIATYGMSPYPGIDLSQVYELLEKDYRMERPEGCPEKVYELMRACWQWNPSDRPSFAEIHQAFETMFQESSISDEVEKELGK
# [22] = system: Src Thr338Ile; experiment: Inhibition of Src gatekeeper mutant; type: biochemical, chicken
# Description: Kinase domain constructs of human c-Abl (residues 229-512), chicken c-Src (residues 251-533 and residues 83-533), murine Lck (residues 227-509), and human Hck (residues 166-445) were expressed as previously described (Seeliger, Young et al. 2005; Seeliger, Nagar et al. 2007; the entire contents of each of which are incorporated by reference herein). Mutations were introduced into chicken c-Src (residues 251-533) (T338I, C277Q, L297M) by site-directed mutagenesis and verified by DNA sequencing.
# For the FRET-based endpoint assay, kinase assays were performed using Invitrogen's Z′-LYTE kinase assay using the Tyr 02 substrate peptide (based upon the optimal Abl substrate peptide […]) according to the manufacturer's instructions. Assays were performed at near KM ATP concentrations for full-length c-Src and full-length c-Src T338I-50 μM and 7 μM, respectively.
# [23] = biological target: HCK (Homo sapiens, UniProt P08631); experiment: Continuous spectrophotometric kinase activity assay; type: biochemical; design: Kinase domain constructs of human c-Abl (residues 229-512), chicken c-Src (residues 251-533 and residues 83-533), murine Lck (residues 227-509), and human Hck (residues 166-445); made in house
# [24] = 5 μM ATP, 100 μM Src optimal peptide
# [25] = 250 μM ATP, 300 μM Src optimal peptide
# [26] = 5 μM ATP, 300 μM Src optimal peptide
# HCK, sequence (P08631 262-515 limits assumed): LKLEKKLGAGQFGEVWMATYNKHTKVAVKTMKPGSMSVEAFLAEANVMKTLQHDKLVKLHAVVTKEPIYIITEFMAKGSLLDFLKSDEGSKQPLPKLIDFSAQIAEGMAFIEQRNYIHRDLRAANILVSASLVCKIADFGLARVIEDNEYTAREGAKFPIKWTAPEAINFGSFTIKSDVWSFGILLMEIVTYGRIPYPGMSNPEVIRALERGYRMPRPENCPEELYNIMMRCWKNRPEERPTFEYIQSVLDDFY
# FGR, sequence (P09769 whole entry): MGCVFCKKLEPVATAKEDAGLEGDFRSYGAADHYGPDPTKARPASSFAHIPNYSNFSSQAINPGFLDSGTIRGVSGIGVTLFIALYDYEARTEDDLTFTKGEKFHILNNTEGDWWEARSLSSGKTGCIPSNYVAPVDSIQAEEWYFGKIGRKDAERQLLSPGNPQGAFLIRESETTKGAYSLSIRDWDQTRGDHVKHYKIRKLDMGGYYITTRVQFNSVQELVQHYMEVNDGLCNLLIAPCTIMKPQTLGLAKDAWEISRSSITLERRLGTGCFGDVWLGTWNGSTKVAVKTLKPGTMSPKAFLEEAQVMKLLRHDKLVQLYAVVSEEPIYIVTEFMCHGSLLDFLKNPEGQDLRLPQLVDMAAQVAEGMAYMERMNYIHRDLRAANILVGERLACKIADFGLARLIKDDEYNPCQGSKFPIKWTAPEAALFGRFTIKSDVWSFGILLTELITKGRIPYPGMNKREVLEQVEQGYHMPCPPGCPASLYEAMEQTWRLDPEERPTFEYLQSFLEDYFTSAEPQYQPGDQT
# ROCK1, sequence (Q13464 whole entry): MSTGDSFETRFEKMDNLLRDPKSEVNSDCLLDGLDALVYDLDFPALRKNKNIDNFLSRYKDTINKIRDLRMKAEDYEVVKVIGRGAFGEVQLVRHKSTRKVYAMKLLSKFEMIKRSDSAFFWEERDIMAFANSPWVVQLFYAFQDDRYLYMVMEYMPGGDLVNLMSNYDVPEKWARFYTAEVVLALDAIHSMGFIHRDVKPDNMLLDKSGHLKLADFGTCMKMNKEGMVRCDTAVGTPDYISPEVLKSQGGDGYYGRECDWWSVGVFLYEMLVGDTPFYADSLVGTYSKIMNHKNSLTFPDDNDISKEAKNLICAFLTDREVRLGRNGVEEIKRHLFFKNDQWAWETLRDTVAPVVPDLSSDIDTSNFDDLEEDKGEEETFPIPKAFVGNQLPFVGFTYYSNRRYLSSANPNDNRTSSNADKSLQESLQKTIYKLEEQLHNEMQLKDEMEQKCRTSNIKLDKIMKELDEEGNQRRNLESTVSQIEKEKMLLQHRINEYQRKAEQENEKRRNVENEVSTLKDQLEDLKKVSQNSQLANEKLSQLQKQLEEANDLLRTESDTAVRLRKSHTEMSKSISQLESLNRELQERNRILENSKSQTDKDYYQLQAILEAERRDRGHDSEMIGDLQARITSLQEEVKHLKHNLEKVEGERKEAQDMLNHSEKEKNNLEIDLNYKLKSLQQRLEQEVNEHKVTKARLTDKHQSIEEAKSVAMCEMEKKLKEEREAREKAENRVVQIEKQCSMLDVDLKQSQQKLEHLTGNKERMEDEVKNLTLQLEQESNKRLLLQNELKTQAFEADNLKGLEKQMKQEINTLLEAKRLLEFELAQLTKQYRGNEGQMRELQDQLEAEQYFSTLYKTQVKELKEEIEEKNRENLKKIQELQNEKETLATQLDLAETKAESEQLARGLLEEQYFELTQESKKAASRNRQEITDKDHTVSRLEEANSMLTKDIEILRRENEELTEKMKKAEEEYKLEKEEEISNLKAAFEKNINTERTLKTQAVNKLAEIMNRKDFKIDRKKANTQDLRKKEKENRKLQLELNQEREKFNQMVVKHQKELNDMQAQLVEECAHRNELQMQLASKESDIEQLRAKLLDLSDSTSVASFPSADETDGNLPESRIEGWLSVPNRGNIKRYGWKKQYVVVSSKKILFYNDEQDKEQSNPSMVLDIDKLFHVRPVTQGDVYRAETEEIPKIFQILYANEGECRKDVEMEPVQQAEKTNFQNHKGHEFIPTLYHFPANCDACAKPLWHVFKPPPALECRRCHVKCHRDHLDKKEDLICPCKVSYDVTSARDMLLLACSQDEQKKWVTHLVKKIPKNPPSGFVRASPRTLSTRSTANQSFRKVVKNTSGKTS
# LYN A, sequence (P07948 whole entry): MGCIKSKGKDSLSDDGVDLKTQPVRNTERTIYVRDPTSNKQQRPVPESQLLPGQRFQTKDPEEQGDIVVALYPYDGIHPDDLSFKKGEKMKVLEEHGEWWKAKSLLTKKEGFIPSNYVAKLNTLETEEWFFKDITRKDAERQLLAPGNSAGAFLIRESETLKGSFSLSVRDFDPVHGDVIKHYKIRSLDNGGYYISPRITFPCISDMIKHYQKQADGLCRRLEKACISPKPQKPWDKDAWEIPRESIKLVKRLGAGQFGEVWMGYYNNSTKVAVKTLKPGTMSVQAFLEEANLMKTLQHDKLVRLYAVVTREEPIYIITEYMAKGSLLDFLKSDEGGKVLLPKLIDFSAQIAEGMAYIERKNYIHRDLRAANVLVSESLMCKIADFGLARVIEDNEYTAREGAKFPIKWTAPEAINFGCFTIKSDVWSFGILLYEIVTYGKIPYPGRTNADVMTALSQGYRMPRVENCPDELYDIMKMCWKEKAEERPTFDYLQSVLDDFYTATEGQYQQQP
# LYN B, sequence (P07948 1-491 isoform P07948-2): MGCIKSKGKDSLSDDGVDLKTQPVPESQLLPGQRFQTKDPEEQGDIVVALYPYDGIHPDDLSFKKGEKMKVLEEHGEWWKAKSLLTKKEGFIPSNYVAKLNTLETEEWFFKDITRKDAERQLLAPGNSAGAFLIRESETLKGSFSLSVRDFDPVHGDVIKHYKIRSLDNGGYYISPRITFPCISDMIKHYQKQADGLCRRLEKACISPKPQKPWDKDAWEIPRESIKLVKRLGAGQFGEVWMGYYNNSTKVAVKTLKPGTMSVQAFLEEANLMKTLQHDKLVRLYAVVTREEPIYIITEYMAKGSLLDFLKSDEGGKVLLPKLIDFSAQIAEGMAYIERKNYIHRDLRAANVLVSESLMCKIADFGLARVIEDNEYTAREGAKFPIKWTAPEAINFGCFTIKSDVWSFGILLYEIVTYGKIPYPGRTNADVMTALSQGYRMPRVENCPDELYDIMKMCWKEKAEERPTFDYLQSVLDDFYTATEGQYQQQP
# MAP2K6 (MKK6), sequence (P52564 whole entry): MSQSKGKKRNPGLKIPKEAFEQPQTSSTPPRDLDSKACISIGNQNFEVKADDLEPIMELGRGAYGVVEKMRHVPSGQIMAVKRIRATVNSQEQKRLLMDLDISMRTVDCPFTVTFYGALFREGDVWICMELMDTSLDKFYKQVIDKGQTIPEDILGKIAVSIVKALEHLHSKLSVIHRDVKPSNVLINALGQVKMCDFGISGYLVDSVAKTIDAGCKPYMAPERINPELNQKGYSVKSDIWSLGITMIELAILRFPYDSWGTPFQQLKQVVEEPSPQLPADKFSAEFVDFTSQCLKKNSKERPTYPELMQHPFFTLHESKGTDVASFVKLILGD
# CHEK1 (CHK1), sequence (O14757 whole entry): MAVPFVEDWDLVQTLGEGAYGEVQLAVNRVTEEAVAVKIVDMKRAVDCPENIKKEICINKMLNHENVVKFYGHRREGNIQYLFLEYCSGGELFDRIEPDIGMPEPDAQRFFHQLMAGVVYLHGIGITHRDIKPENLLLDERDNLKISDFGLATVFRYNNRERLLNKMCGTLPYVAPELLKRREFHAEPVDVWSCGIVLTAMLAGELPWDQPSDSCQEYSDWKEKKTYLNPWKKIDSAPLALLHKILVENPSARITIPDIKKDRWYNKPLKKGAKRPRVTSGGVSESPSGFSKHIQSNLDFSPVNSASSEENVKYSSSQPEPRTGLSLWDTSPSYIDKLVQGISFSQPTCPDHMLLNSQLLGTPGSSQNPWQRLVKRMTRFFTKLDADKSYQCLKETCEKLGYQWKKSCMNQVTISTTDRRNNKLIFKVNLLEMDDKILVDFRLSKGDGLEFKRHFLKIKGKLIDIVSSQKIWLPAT
# BTK, sequence (Q06187 whole entry): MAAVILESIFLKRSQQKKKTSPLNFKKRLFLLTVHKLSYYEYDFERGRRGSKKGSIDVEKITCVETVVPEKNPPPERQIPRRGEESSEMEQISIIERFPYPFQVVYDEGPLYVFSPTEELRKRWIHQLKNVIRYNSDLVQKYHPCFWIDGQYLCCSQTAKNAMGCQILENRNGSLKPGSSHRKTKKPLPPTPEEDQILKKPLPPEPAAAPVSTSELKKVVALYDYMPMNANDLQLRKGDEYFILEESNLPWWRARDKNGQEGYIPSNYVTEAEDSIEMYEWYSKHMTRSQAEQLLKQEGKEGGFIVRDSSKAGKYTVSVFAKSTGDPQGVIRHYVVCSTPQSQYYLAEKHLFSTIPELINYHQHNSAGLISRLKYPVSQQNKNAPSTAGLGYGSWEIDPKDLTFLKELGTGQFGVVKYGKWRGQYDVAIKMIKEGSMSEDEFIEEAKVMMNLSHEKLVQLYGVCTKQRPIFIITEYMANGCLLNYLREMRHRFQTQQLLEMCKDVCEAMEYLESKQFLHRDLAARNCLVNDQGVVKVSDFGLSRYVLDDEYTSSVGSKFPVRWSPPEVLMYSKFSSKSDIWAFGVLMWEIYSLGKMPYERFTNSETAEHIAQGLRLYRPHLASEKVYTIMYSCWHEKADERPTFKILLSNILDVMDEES
# MAPK14 (p38 alpha) Direct, sequence (Q16539 whole entry): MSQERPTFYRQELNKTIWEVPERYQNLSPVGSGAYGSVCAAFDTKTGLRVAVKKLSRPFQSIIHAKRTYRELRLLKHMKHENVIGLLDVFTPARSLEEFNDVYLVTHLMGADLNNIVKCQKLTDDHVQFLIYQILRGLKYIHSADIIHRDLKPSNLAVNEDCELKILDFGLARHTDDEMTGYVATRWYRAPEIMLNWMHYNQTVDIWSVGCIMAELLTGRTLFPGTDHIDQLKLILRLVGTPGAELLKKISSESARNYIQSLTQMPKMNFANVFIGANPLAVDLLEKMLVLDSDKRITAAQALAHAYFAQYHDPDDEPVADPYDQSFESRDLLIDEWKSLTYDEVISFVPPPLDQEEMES
structure (smiles),measurement,setting,value
NC(=O)[C@@H]1CCCNC(=O)[C@H](Cc2ccc([N+](=O)[O-])cc2)NC(=O)[C@H](Cc2ccco2)NC(=O)[C@H](CC2CC2)NC(=O)/C=C/C(=O)N1 [trans-A10-B1-C5-D6],% inhibition,[1],−1%
same,% inhibition,[2],4%
same,% inhibition,[3],7%
same,% inhibition,[4],−1%
same,% inhibition,[5],−6%
same,% inhibition,[6],4%
same,% inhibition,[7],−7%
same,% inhibition,[8],−1%
same,% inhibition,[9],−9%
same,% inhibition,[10],−3%
same,% inhibition,[11],−1%
same,% inhibition,[12],19%
same,% inhibition,[13],−15%
same,% inhibition,[14],9%
same,% inhibition,[15],−1%
same,% inhibition,[16],−1%
same,% inhibition,[17],13%
same,% inhibition,[18],−8%
same,% inhibition,[19],12%
same,IC50,[20]; [24],11 µM
same,IC50,[20]; [25],21 µM
same,IC50,[21]; [24],> 100 µM
same,IC50,[21]; [26],> 100 µM
same,IC50,[21]; [25],> 100 µM
same,inhibition of Src Thr338Ile gatekeeper mutant (in words),[22],retained their inhibition potency
same,IC50,[23]; [24],> 100 µM
same,IC50,[23]; [26],> 100 µM
same,IC50,[23]; [25],> 100 µM
